In article PMC8684776, “Discovery and characterization of potent And‐1 inhibitors for cancer treatment” (Clinical and Translational Medicine, 2021):

How the values were obtained:
And‐1 = target: T1, And‐1 (Homo sapiens, UniProt O75717); assay: Cellular thermal shift assay; assay type: binding; conditions: IGROV1 cells, higher temperature, compared to DMSO
T1 construct: expressed in transfected cells
T1 sequence (O75717 1-1129): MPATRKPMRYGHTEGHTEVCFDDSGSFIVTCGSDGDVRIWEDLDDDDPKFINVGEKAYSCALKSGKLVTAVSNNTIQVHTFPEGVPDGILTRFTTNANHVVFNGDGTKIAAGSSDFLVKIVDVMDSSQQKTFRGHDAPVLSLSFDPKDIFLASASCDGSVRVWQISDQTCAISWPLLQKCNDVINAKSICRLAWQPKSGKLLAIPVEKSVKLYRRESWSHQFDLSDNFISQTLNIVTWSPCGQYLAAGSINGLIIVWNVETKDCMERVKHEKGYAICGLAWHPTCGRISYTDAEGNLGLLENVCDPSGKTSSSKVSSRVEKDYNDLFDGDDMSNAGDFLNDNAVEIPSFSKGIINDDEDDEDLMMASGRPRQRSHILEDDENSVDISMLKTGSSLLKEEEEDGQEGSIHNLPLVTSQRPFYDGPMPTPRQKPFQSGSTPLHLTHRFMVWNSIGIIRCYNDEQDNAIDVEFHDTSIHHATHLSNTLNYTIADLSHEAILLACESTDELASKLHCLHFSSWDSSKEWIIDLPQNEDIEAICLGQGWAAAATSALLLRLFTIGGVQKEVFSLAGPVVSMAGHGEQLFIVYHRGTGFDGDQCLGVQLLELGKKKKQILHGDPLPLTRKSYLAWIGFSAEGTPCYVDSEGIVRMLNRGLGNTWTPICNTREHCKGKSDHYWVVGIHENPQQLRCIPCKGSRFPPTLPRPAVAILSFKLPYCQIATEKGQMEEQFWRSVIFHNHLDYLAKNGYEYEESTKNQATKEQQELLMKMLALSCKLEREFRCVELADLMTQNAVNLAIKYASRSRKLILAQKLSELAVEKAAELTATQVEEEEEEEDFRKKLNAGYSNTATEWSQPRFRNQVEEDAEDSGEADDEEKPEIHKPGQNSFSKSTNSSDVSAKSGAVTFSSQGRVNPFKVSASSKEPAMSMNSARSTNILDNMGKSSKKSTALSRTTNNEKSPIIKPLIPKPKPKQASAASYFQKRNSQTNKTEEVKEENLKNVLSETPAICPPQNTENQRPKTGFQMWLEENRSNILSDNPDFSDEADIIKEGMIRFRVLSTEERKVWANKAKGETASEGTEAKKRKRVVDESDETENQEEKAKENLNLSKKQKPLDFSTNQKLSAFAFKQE

IGROV1 cells [1] = assay: HR reporter assay; assay type: cell-based, human; conditions: CH3 2 µM or 4 µM
Procedure: (§1) Supplementary Figure S1. Identification of novel And-1 inhibitors. […]
(E) HR reporter assay to detect HR repair efficiency in cells treated with CH3.
IGROV1 cells treated with DMSO, 2 µM or 4 µM of CH3 were subjected to HR reporter assay and the
percentage of GFP-positive cells was determined by flow cytometry 48 h after I-SceI plasmid transfection.
HR efficiency were normalized to those obtained from cells treated with DMSO. Data represent means ±
SEM from three independent experiments. (F) HR reporter assay to detect HR repair efficiency in cells
treated with BZA using approaches as in E.

[2] = Toxicity evaluation of treated mice (body weight, H&E staining of organs)
Procedure: To this end, we subcutaneously implanted IGROV1 or MCF7 cells into nude mice to form ovarian or breast tumors, respectively. The mice with these tumors were then treated with vehicle, 20 mg/kg or 40 mg/kg of CH3 via intraperitoneal injection.
To assess the efficacy of the combination of And‐1 inhibitors and cisplatin in vivo, we treated cisplatin resistant IGROV1 CR xenografts with vehicle, And‐1 inhibitors, cisplatin or a combination of cisplatin and And‐1 inhibitor via intraperitoneal injection.
week old female BALB/c athymic nude mice (CByJ.Cg-Foxn1nu/J, weighting 20-25g, from the Jackson
Laboratory) were inoculated subcutaneously by injecting the OC cells, cisplatin resistant OC cells or
breast cancer cells suspended in 100 µl ice-cold Matrigel/PBS (1:1, V:V; 5 x 10^6/mouse) into the dorsal
flank of each mouse. When the average tumor volume reached 100-150 mm3, the mice were randomized
into subsequent experiment groups. For tumors treated with CH3 only, CH3 was given at 0 mg/kg, 20
mg/kg and 40 mg/kg twice a week for three weeks.
were then given intraperitoneally at 8 mg/kg, 20 mg/kg and 2 mg/kg respectively twice a week for three
During the drug treatment, the tumor volume and body weight were measured.

IGROV1 cells [3] = assay: Flow cytometry cell cycle analysis (propidium iodide); assay type: cell-based, human; conditions: 1 µM, FACS
Text: And‐1 is involved in DNA replication in the S‐phase and is required for the S‐phase progression.[15] We assumed that And‐1 inhibitors should be able to inhibit DNA replication by targeting And‐1.
as §1
Molecular weight of each compound was indicated. (C) Flow cytometry

[4] = test system: 60 human tumour cell lines; assay: NCI-60 one-dose screen, whole panel statistics; assay type: cell-based; conditions: mean growth percentage against all 60 tumor cell lines, 10 μM
Procedure: The NCI‐60 cell line panel includes 60 human tumour cell lines. The effect of CH3 on tumour cell growth was tested at National Cancer Institute, Developmental Therapeutics Program (NCI‐DTP) by following the protocol as described previously.[47]
We next evaluate the inhibitory efficacy of CH3 against a panel of 60 human cancer cell lines at the NCI‐DTP. […] To further compare the efficacy of CH3 in the inhibition of NCI 60 cells, we examined the inhibitory effects of CH3 on 60 cells by using five doses of CH3.
FIGURE 5 The effect of CH3 treatment in the NCI‐60 human tumor cell line panel. (A) Mean graph display of NCI‐60 cell line screening data for CH3. The presented result is a one‐dose mean graph display of NCI‐60 cell line screening data for CH3 at 10 μM. The number reported for the one‐dose assay is growth relative to the no‐drug control. Bars deflecting to the right of the mean indicate relatively high sensitivity, and bars deflecting to the left of the mean indicate relatively low sensitivity to CH3. Experiments were performed at the NCI‐DTP. (B) Dose–response curves of CH3 for breast and ovarian cell lines from NCI‐60 cell line panel. All cells were tested at the NCI‐DTP in the presence of CH3 at five concentrations (0.01 μM, 0.1 μM, 1 μM, 10 μM and 100 μM). […]

IGROV1 cells [5] = assay: Immunofluorescence of CtIP recruitment to micro-irradiation induced DSB sites; assay type: cell-based, human; conditions: 1 µM
Procedure: as §1
siAnd-1. S: S phase. (D) Immunofluorescence assay to detect CtIP and γH2AX foci formation after CH3 […]
IGROV1 cells treated with DMSO, 1 […]
to immunostain γH2AX and CtIP. For each experiment, 50 cells were counted and the percentage of cells with co-localization of γH2AX and CtIP foci was determined. Data represent means ± SEM from three independent experiments. (E) HR reporter assay to detect HR repair efficiency in cells treated with CH3. […]

IGROV1 CR xenografts = assay: Cisplatin resistant IGROV1 CR xenograft in nude mice; assay type: in vivo, mouse

OB1OCc2cc(/C=C/c3ccc(Cl)c(Cl)c3)ccc21 [CH3, (E)‐5‐(3,4‐dichlorostyryl)benzo[c][1,2]oxaborol‐1(3H)‐ol]
thermal stability of And‐1 protein (And‐1): stabilized | HR efficiency (IGROV1 cells [1]): profoundly reduced HR efficiency | toxicity of combination with cisplatin: body weight and organs (heart, liver, kidney, lung) ([2]; IGROV1 CR xenograft mice, cisplatin 8 mg/kg + CH3 20 mg/kg or BZA 2 mg/kg): no obvious systemic toxicity or side effect | toxicity: body weight; H&E staining of heart, liver, kidney and lung ([2]; xenograft mice, CH3 20 or 40 mg/kg intraperitoneal): did not observe systemic toxicity or obvious side effects | percentage of cells in the S‐phase (IGROV1 cells [3]): reduced the percentage of cells in the S‐phase | Growth Percent (Mean) [4]: 1.84% | recruitment of CtIP to DSB sites induced by micro‐irradiation (IGROV1 cells [5]): significantly decreased | expression of And‐1 in tumours (IHC) (IGROV1 CR xenografts): suppressed expression of And‐1 in tumours | resistant tumour growth, combination with cisplatin vs cisplatin alone (IGROV1 CR xenografts; cisplatin 8 mg/kg + CH3 20 mg/kg or BZA 2 mg/kg, intraperitoneal, 3 weeks): significantly reduced resistant tumour growth
